Measurements published in US20260355191A1, “PAN-RAS INHIBITOR COMPOUND” (ADLAI NORTYE BIOPHARMA CO., LTD., priority 2024, published 2026).

Columns and labels:
PSN1 = assay: In vitro cell proliferation inhibition assay (CellTiter-Glo), PSN1; format: cell-based; conditions: PSN1, KRAS (p.G12R), 72 h; read-out: IC50, antiproliferative activity
Experimental: (§1) Due to the diversity of RAS mutations, and in order to evaluate the activity of the compounds in different RAS mutant cell lines, we selected cell lines with KRAS^G12D, KRAS^G12V, KRAS^G12c, NRAS^q61L, KRAS^G13D, KRAS^G12R, and KRAS^WT mutations (see the table below for in vitro activity evaluation and screening of the compounds.
(§2) According to the doubling time of different cell lines, different numbers of cells (1000-5000 cells/well) were seeded into 96-well plates containing 180 μL of the corresponding culture medium, and incubated overnight in a cell incubator at 37 °C with 5% C02. On the following day, the test compounds were pre-diluted in the culture medium in a 3-fold serial dilution series, with the highest concentration being […], resulting in 10 concentration gradients in total. Subsequently, 20 μL of culture medium containing the compounds at different concentrations was added to the cells in the 96-well plates, ensuring a final compound concentration of up to 10 μM, with 10 concentrations in 3-fold dilution. After co-incubation of the cells with the compounds for 72 h, the 96-well plates were removed from the incubator and equilibrated at room temperature for 30 min. Then, 25 μL of CellTiter-Glo® Reagent was added to each well and mixed thoroughly, followed by incubation at room temperature for 10 min. Subsequently, 100 μL of the samples was transferred to white 96-well plates (OptiPlate™-96, PerkinElmer), and […] signal values were read using a multifunctional microplate reader (SpectraMax i3x, Molecular Devices). The signal values were then normalized, and curve fitting was performed using a four-parameter logistic regression equation to calculate the half maximal inhibitory concentration (IC50) of the compounds against the cell lines.

SW480 = assay: In vitro cell proliferation inhibition assay (CellTiter-Glo), SW480; format: cell-based; conditions: SW480, KRAS (p.G12V), 72 h; read-out: IC50, antiproliferative activity
Experimental: as §1, §2

MV411 = assay: In vitro cell proliferation inhibition assay (CellTiter-Glo), MV411; format: cell-based; conditions: MV411, KRAS wild type, 72 h; read-out: IC50, antiproliferative activity
Experimental: as §2

AsPC-1 = assay: In vitro cell proliferation inhibition assay (CellTiter-Glo), AsPC-1; format: cell-based; conditions: AsPC-1, KRAS (p.G12D), 72 h; read-out: IC50, antiproliferative activity
Experimental: as §1, §2

HCT116 = assay: In vitro cell proliferation inhibition assay (CellTiter-Glo), HCT116; format: cell-based; conditions: HCT116, KRAS (p.G13D), 72 h; read-out: IC50, antiproliferative activity
Experimental: as §1, §2

H358 = assay: In vitro cell proliferation inhibition assay (CellTiter-Glo), H358; format: cell-based; conditions: H358, KRAS (p.G12C), 72 h; read-out: IC50, antiproliferative activity
Experimental: as §1, §2

HepG2 = assay: In vitro cell proliferation inhibition assay (CellTiter-Glo), HepG2; format: cell-based; conditions: HepG2, NRAS (p.Q61L), 72 h; read-out: IC50, antiproliferative activity
Experimental: as §1, §2

[1] = Pharmacokinetic study in mice; format: in vivo; conditions: mouse, male CD-1 mice; for bioavailability: blood; for bioavailability / AUC / Cmax: po, p.o. 2 mpk; for bioavailability / Vd / clearance: i.v. 1 mpk; for Vd / clearance: iv, 1 mg/kg; for Vd / clearance / AUC / Cmax: whole blood; for AUC / Cmax: 2 mg/kg
Experimental: To evaluate the pharmacokinetic behavior of the compounds of the disclosure in male CD-1 mice, the test compounds were dissolved in a solvent (5% DMSO/10% solutol/85% water). Twelve male CD-1 mice were divided into two groups, with six animals in each group. Group 1 received a single intravenous bolus (i.v.) administration of the compound, and Group 2 received a single oral (p.o.) administration of the compound. Whole blood samples were collected at 0.083 h (intravenous group only), 0.25, 0.5, 1, 2, 4, 8, and 24 hours after dosing. The concentration of the test compound in whole blood samples was determined using the LC-MS/MS method.

IC50 (SW480) [nM]	IC50 (MV411) [nM]	IC50 (AsPC-1) [nM]	IC50 (HCT116) [nM]	IC50 (H358) [nM]	IC50 (HepG2) [nM]	bioavailability [1] [%]	Vd [1] [L/kg]	clearance [1] [mL/min/kg]	AUC [1] [ng·h/mL]	Cmax [1] [ng/mL]	Compound	IC50 (PSN1) [nM]
0.07	1.7	0.05	~10	0.06	5	–	–	–	–	–	CCn1c(-c2cc(-c3nnc(C4CCN(C5COC5)CC4)o3)cnc2[C@H](C)OC)c2c3cc(ccc31)-c1csc(n1)C[C@H](NC(=O)[C@H]1C[C@@H]1C)C(=O)N1CCC[C@H](N1)C(=O)OCC(C)(C)C2 (atropisomer, axis not shown) [Compound 1, (1S,2S)—N-((6^3S,4S,Z)-1^1-ethyl-1^2-(2-((S)-1-methoxyethyl)-5-(5-(1-(oxetan-3-yl)piperidin-4-yl)-1,3,4-oxadiazol-2-yl)pyridin-3-yl)-10,10-dimethyl-5,7-dioxo-6^1,6^2,6^3,6^4,6^5,6^6-hexahydro-1^1H-8-oxa-2(4,2)-thiazola-1(5,3)-indola-6(1,3)-pyridazinacycloundecaphane-4-yl)-2-methylcyclopropane-1-carboxamide]	5.1
0.02	0.56	0.01	0.03	0.03	0.01	–	–	–	–	–	CO[C@@H](C)c1ncc(-c2noc(C3CCN(C4COC4)CC3)n2)cc1-c1c2c3cc(ccc3n1CC(F)(F)F)-c1csc(n1)C[C@H](NC(=O)[C@H]1[C@H](C)[C@@H]1C)C(=O)N1N[C@H](C(=O)OCC(C)(C)C2)C2CC1C2 [Example 42]	0.01
0.04	0.45	0.01	0.02	0.04	0.11	–	–	–	–	–	CO[C@@H](C)c1ncc(-c2nnc(C3CCN(C4COC4)C[C@@H]3C)o2)cc1-c1c2c3cc(ccc3n1CC(F)(F)F)-c1csc(n1)C[C@H](NC(=O)[C@H]1[C@H](C)[C@@H]1C)C(=O)N1N[C@H](C(=O)OCC(C)(C)C2)C2CC1C2 (stereo partly drawn) [Compound 38]	0.01
0.06	1	0.05	0.58	0.01	0.05	–	–	–	–	–	CO[C@@H](C)c1ncc(-c2nnc(C3CCN(C4COC4)C3)o2)cc1-c1c2c3cc(ccc3n1CC(F)(F)F)-c1csc(n1)C[C@H](NC(=O)[C@H]1[C@H](C)[C@@H]1C)C(=O)N1N[C@H](C(=O)OCC(C)(C)C2)C2CC1C2 (stereo partly drawn) [Example 46]	0.09
1.5	4.2	1.2	2.6	0.08	2.8	–	–	–	–	–	CCn1c(-c2cc(N3CCN(C)CC3)cnc2[C@H](C)OC)c2c3cc(ccc31)-c1csc(n1)C[C@H](NC(=O)[C@H]1C[C@@H]1C)C(=O)N1CCC[C@H](N1)C(=O)OCC(C)(C)C2 [RMC-6236]	2
0.54	0.64	0.25	3.2	0.01	0.25	–	–	–	–	–	CCn1c(-c2cc(-c3nc(C4CCN(C5COC5)CC4)n(C4COC4)n3)cnc2[C@H](C)OC)c2c3cc(ccc31)-c1csc(n1)C[C@H](NC(=O)[C@H]1C[C@@H]1C)C(=O)N1CCC[C@H](N1)C(=O)OCC(C)(C)C2 (atropisomer, axis not shown) [Compound 26, (1S,2S)—N-((6^3S,4S,Z)-1^1-ethyl-1^2-(2-((S)-1-methoxyethyl)-5-(1-(oxetan-3-yl)-5-(1-(oxetan-3-yl)piperidin-4-yl)-1H-1,2,4-triazol-3-yl)pyridin-3-yl)-10,10-dimethyl-5,7-dioxo-6^1,6^2,6^3,6^4,6^5,6^6-hexahydro-1^1H-8-oxa-2(4,2)-thiazola-1(5,3)-indola-6(1,3)-pyridazinacycloundecaphane-4-yl)-2-methylcyclopropane-1-carboxamide]	0.08
0.87	1.1	0.37	11	0.17	0.05	–	–	–	–	–	CCn1c(-c2cc(-c3nc(C4CCN(C5COC5)CC4)n(CCN(C)C)n3)cnc2[C@H](C)OC)c2c3cc(ccc31)-c1csc(n1)C[C@H](NC(=O)[C@H]1C[C@@H]1C)C(=O)N1CCC[C@H](N1)C(=O)OCC(C)(C)C2 (atropisomer, axis not shown) [Compound 27, (1S,2S)—N-((6^3S,4S,Z)-1^2-(5-(1-(2-(dimethylamino)ethyl)-5-(1-(oxetan-3-yl)piperidin-4-yl)-1H-1,2,4-triazol-3-yl)-2-((S)-1-methoxyethyl)pyridin-3-yl)-1^1-ethyl-10,10-dimethyl-5,7-dioxo-6^1,6^2,6^3,6^4,6^5,6^6-hexahydro-1^1H-8-oxa-2(4,2)-thiazola-1(5,3)-indola-6(1,3)-pyridazinacycloundecaphane-4-yl)-2-methylcyclopropane-1-carboxamide]	0.16
0.06	0.76	0.09	0.23	0.041	0.16	63.3	2.87	3.7	5740	248	CO[C@@H](C)c1ncc(-c2nnc(C3CCN(C4COC4)CC3)o2)cc1-c1c2c3cc(ccc3n1CC(F)(F)F)-c1csc(n1)C[C@H](NC(=O)C1C[C@@H]1C)C(=O)N1N[C@H](C(=O)OCC(C)(C)C2)C2CC1C2 (stereo partly drawn) [Compound 9]	0.01
0.37	0.42	0.06	1.1	0.01	0.022	–	–	–	–	–	CO[C@@H](C)c1ncc(-c2nnc(C3CCN(C4CCN(C)CC4)CC3)o2)cc1-c1c2c3cc(ccc3n1CC(F)(F)F)-c1csc(n1)C[C@H](NC(=O)[C@H]1[C@@H]3COC[C@@H]31)C(=O)N1N[C@H](C(=O)OCC(C)(C)C2)C2CC1C2 [Example 45]	0.04
0.09	0.16	0.06	0.07	0.002	0.01	24.5	1.95	4.6	1790	167	CCn1c(-c2cc(-c3nnc(C4CCN(C5COC5)CC4)o3)cnc2[C@H](C)OC)c2c3cc(ccc31)-c1csc(n1)C[C@H](NC(=O)[C@H]1[C@H](C)[C@@H]1C)C(=O)N1CCC[C@H](N1)C(=O)OCC(C)(C)C2 (atropisomer, axis not shown) [Compound 2, (1r,2R,3S)—N-((6^3S,4S,Z)-1^1-ethyl-1^2-(2-((S)-1-methoxyethyl)-5-(5-(1-(oxetan-3-yl)piperidin-4-yl)-1,3,4-oxadiazol-2-yl)pyridin-3-yl)-10,10-dimethyl-5,7-dioxo-6^1,6^2,6^3,6^4,6^5,6^6-hexahydro-1^1H-8-oxa-2(4,2)-thiazola-1(5,3)-indola-6(1,3)-pyridazinacycloundecaphane-4-yl)-2,3-dimethylcyclopropane-1-carboxamide]	0.01
0.13	13	0.03	23	0.39	1.6	–	–	–	–	–	CCn1c(-c2cc(-c3nnc([C@H]4CCCN(C5COC5)C4)o3)cnc2[C@H](C)OC)c2c3cc(ccc31)-c1csc(n1)C[C@H](NC(=O)[C@H]1C[C@@H]1C)C(=O)N1CCC[C@H](N1)C(=O)OCC(C)(C)C2 (atropisomer, axis not shown) [Compound 18, (1S,2S)—N-((6^3S,4S,Z)-1^1-ethyl-1^2-(2-((S)-1-methoxyethyl)-5-(5-((S)-1-(oxetan-3-yl)piperidin-3-yl)-1,3,4-oxadiazol-2-yl)pyridin-3-yl)-10,10-dimethyl-5,7-dioxo-6^1,6^2,6^3,6^4,6^5,6^6-hexahydro-1^1H-8-oxa-2(4,2)-thiazola-1(5,3)-indola-6(1,3)-pyridazinacycloundecaphane-4-yl)-2-methylcyclopropane-1-carboxamide]	5.3
